Experimental data: patent US20260007601A1, “IONIZABLE CATIONIC LIPID COMPOUND AND COMPOSITION FOR DELIVERING NUCLEIC ACID AND USE THEREOF” (BEIJING YOUCAREKECHUANG PHARMACEUTICAL TECHNOLOGY CO., LTD., priority 2023, published 2026)
Several values for one entry are separate records, joined by “and”; a condition that tells them apart may be missing. Identical values can stand only once.

Experiments:
293T cells [1] = experiment: Cell survival rate assay (CCK-8); type: cell-based
Outline: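 293T cells seeded at 10,000 per well and grown overnight, then exposed for 24 h to LNPs (cationic/neutral/structured/PEG lipids 49:10:39.5:1.5) carrying 1.5 μg Fluc-mRNA, or Lipofectamine 3000. Viability read by CCK-8, 1 h incubation, absorbance at 450 nm.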

293T cells [2] = experiment: Fluorescence detection of Fluc-mRNA (cell transfection efficiency of LNP formulations); type: cell-based
Outline: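 293T cells at 10,000 per well, adhered overnight, then given LNPs carrying 0.3 μg Fluc-mRNA (cationic:neutral:structured:polymer-conjugated lipid 49:10:39.5:1.5 molar). After 24 h, luciferase signal read with luciferase kit reagents on an IVIS imaging system as transfection efficiency.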

[3] = Encapsulation rate, drug loading concentration and total RNA concentration detection (RiboGreen); type: physicochemical
[4] = Particle size and polydispersity index (PDI) of nanolipid particles, dynamic light scattering; type: physicochemical; conditions: LNP formulation prepared from the named cationic lipid, 25° C
Description: The particle size and polydispersity index (PDI) were determined by dynamic light scattering method using a Malvern laser particle size analyzer. 10 μL of liposome solution was diluted to 1 mL with RNase-free deionized water and added to a sample pool. Each sample was measured three times. The measurement conditions were: 90° scattering angle, 25° C.

[5] = LNP formulation of the named lipid

CCCCCCCCC(CCCCCCCC)COC(=O)CCCCCN(CCCCCC(=O)OCC(CCCCCCCC)CCCCCCCC)CCN(C)CCO [YK-209, bis(2-octyldecyl)-6,6′-((2-(2-hydroxyethyl(methyl)amino)ethyl)azadialkyl)dihexanoate]
Cell survival rate (293T cells [1]; LNP containing 1.5 μg Fluc-mRNA, 24 hours, CCK-8): 76.69%
cell survival rate higher (cytotoxicity reduced) compared with YK-221 (293T cells [1]; difference of rates): 55% and 55.74%
cell survival rate higher (toxicity lower) than that of YK-204 (293T cells [1]; difference of rates): 34.12%
cell survival rate higher (toxicity lower) than that of YK-225 (293T cells [1]; difference of rates): 30% and 33.28%
cell survival rate higher than that of ALC-0315 (293T cells [1]; difference of rates): 26.73%
cell survival rate higher than that of HHMA (293T cells [1]; difference of rates): 11.13%
cell survival rate higher than that of Lipofectamine 3000 (293T cells [1]; difference of rates): 53.64%
cell survival rate higher than that of SM-102 (293T cells [1]; difference of rates): 8.14%
cell survival rate higher than that of YK-203 (293T cells [1]; difference of rates): 41.13%
cell survival rate higher than that of YK-205 (293T cells [1]; difference of rates): 17.77%
cell survival rate higher than that of YK-208 (293T cells [1]; difference of rates): 30.01%
cell survival rate higher than that of YK-210 (293T cells [1]; difference of rates): 38.31%
cell survival rate higher than that of YK-211 (293T cells [1]; difference of rates): 24.39%
cell survival rate higher than that of YK-212 (293T cells [1]; difference of rates): 41.43%
cell survival rate higher than that of YK-213 (293T cells [1]; difference of rates): 35.25%
cell survival rate higher than that of YK-214 (293T cells [1]; difference of rates): 51.11% and 50%
cell survival rate higher than that of YK-215 (293T cells [1]; difference of rates): 32.10%
cell survival rate higher than that of YK-216 (293T cells [1]; difference of rates): 30.89%
cell survival rate higher than that of YK-217 (293T cells [1]; difference of rates): 34.42%
cell survival rate higher than that of YK-219 (293T cells [1]; difference of rates): 18.08%
cell survival rate higher than that of YK-220 (293T cells [1]; difference of rates): 17.70%
cell survival rate higher than that of YK-222 (293T cells [1]; difference of rates): 42.94%
cell survival rate higher than that of YK-223 (293T cells [1]; difference of rates): 40.05%
cell survival rate higher than that of YK-224 (293T cells [1]; difference of rates): 53.22%
cell survival rate higher than that of YK-226 (293T cells [1]; difference of rates): 48.79%
cell survival rate higher than that of compound 21 (293T cells [1]; difference of rates): 7.67%
cell survival rate higher than that of compound 23 (293T cells [1]; difference of rates): 6.59%
RLU / cell transfection efficiency, times that of ALC-0315 (293T cells [2]; Fluc-mRNA LNP): 12.51 times
RLU / cell transfection efficiency, times that of HHMA (293T cells [2]; Fluc-mRNA LNP): 12.79 times
RLU / cell transfection efficiency, times that of Lipofectamine 3000 (293T cells [2]; Fluc-mRNA LNP): 22.36 times
RLU / cell transfection efficiency, times that of YK-009 (293T cells [2]; Fluc-mRNA LNP): 5.24 times
RLU / cell transfection efficiency, times that of compound 21 (293T cells [2]; Fluc-mRNA LNP): 18.90 times
RLU / cell transfection efficiency, times that of compound 23 (293T cells [2]; Fluc-mRNA LNP): 20.17 times
cell transfection efficiency, times that of YK-223 (293T cells [2]; Fluc-mRNA LNP): 280.74 times
cell transfection efficiency, times that of YK-224 (293T cells [2]; Fluc-mRNA LNP): 239.25 times
cell transfection efficiency, times that of YK-226 (293T cells [2]; Fluc-mRNA LNP): 365.22 times
fluorescence absorption value / cell transfection efficiency, times that of YK-203 (293T cells [2]; Fluc-mRNA LNP): 5.44 times
fluorescence absorption value / cell transfection efficiency, times that of YK-204 (293T cells [2]; Fluc-mRNA LNP): 57 times and 57.85 times
fluorescence absorption value / cell transfection efficiency, times that of YK-205 (293T cells [2]; Fluc-mRNA LNP): 20.46 times
fluorescence absorption value / cell transfection efficiency, times that of YK-208 (293T cells [2]; Fluc-mRNA LNP): 5.46 times
fluorescence absorption value / cell transfection efficiency, times that of YK-210 (293T cells [2]; Fluc-mRNA LNP): 4.55 times
fluorescence absorption value / cell transfection efficiency, times that of YK-211 (293T cells [2]; Fluc-mRNA LNP): 15.37 times
fluorescence absorption value / cell transfection efficiency, times that of YK-212 (293T cells [2]; Fluc-mRNA LNP): 5.39 times
fluorescence absorption value / cell transfection efficiency, times that of YK-213 (293T cells [2]; Fluc-mRNA LNP): 15.43 times
fluorescence absorption value / cell transfection efficiency, times that of YK-214 (293T cells [2]; Fluc-mRNA LNP): 4.60 times
fluorescence absorption value / cell transfection efficiency, times that of YK-215 (293T cells [2]; Fluc-mRNA LNP): 21.46 times
fluorescence absorption value / cell transfection efficiency, times that of YK-216 (293T cells [2]; Fluc-mRNA LNP): 9.24 times
fluorescence absorption value / cell transfection efficiency, times that of YK-217 (293T cells [2]; Fluc-mRNA LNP): 293.09 times
fluorescence absorption value / cell transfection efficiency, times that of YK-218 (293T cells [2]; Fluc-mRNA LNP): 34.69 times
fluorescence absorption value / cell transfection efficiency, times that of YK-219 (293T cells [2]; Fluc-mRNA LNP): 13.98 times
fluorescence absorption value / cell transfection efficiency, times that of YK-220 (293T cells [2]; Fluc-mRNA LNP): 97.32 times
fluorescence absorption value, times that of YK-222 (293T cells [2]; Fluc-mRNA LNP): 34.73 times
Multiples of values that equivalent to YK-209 (293T cells [2]; RLU of YK-209 / RLU of the named lipid): 1.00
drug loading concentration, times that of ALC-0315 [3]: 1.60 times
drug loading concentration, times that of HHMA [3]: 1.36 times
drug loading concentration, times that of SM-102 [3]: 1.64 times
drug loading concentration, times that of YK-009 [3]: 1.55 times
drug loading concentration, times that of compound 21 [3]: 1.85 times
drug loading concentration, times that of compound 23 [3]: 2.02 times and 2 times
total RNA concentration, times that of ALC-0315 [3]: 1.17 times
total RNA concentration, times that of HHMA [3]: 1.15 times
total RNA concentration, times that of SM-102 [3]: 1.23 times
total RNA concentration, times that of YK-009 [3]: 1.12 times
total RNA concentration, times that of compound 21 [3]: 1.41 times
total RNA concentration, times that of compound 23 [3]: 1.34 times
Drug loading concentration [3, 5]: 41.76 µg/mL
Encapsulation rate [3, 5]: 96.2%
Total RNA concentration [3, 5]: 43.42 µg/mL
encapsulation rate higher than that of ALC-0315 ([3]; difference of rates): 33.40%
encapsulation rate higher than that of HHMA ([3]; difference of rates): 35.70%
encapsulation rate higher than that of SM-102 ([3]; difference of rates): 33.90%
encapsulation rate higher than that of YK-009 ([3]; difference of rates): 33.20%
encapsulation rate higher than that of compound 21 ([3]; difference of rates): 38.40%
encapsulation rate higher than that of compound 23 ([3]; difference of rates): 41%
PDI [4]: 26.6%
Particle size [4]: 226 nm
